# Where two headings read alike, the source gives them in different places. Peptide text beside a SMILES is read from it. * marks the point of attachment. Cbz = O=C(OCc1ccccc1)*
# Key:
# [1] = tested on: Ras oncogene-transformed EJ3 cells; type: cell-based, murine
# Procedure: (§1) The ability of the peptides and their bis-carbobenzyloxy methyl ester derivatives (using BBM-CA1 A2 X; BBM-C-AMBA-M as examples) to inhibit tumor cell growth was determined by the well-known MTT assay. Ras oncogene-transformed EJ3 cells (a balbc 3T3 murine fibroblast (A-31) transformed with H-ras oncogene from a human bladder carcinoma) were exposed to various concentrations of peptides, peptidomimetics and their functionalized derivatives. Four days later, the percentage of live cells present relative to control was determined for each drug concentration. The extent of cell proliferation in the absence of drug was used as 100% proliferation.
# [2] = tested on: p21ras plasma membrane association in EJ3 cells; assay: p21ras membrane association in EJ3 cells (immunoprecipitation, Western blot); type: cell-based, murine; details: FIG. 6
# From the text: This is indicated by FIG. 6. EJ3 cells were exposed to saline, lovastatin, C-AMBA-M or BBM-C-AMBA-M and p21ras immunoprecipitated with the anti-ras antibody Y13-259 (Oncogene Science Inc.). Membrane-bound and cytosolic p21ras were separated by SDS-PAGE and Western blotted with an anti-p21ras antibody (Y13-259). Control cells (saline-treated) contained only membrane-bound p21ras.
# [3] = target: T1, p21ras farnesyltransferase from EJ3 cells (Mus musculus, UniProt Q61239+Q8K2I1); assay: p21ras farnesyltransferase inhibition, enzyme from EJ3 cells; type: biochemical, murine
# T1 construct: p21ras farnesyltransferase was partially purified from EJ3 cells by DEAE-chromatography; endogenous in cells; host or cells: EJ3 cells (H-ras-transformed Balb/c 3T3 murine fibroblasts)
# T1 sequence (Q8K2I1 whole entry, one chain of several): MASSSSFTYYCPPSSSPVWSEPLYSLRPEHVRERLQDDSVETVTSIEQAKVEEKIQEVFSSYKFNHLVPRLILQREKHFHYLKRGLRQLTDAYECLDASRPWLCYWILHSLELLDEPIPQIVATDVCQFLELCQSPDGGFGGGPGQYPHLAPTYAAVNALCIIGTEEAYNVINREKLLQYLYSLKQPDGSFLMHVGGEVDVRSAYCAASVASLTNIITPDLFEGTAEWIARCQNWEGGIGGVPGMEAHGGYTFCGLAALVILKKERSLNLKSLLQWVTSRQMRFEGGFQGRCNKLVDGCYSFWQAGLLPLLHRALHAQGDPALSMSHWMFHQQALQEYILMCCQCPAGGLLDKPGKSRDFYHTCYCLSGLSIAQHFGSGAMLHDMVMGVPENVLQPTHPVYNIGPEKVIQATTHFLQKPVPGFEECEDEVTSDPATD
# Procedure: Human colon carcinoma COLO-205 cells (ATCC, Rockville, Md.) were grown to confluency in RPMI containing 10% FBS, 1% penicillin/streptomycin at 37° C and 10% Co2 atmosphere. The cells were homogenized in lysis buffer (10 mM Hepes pH 7.4, 1 mM MgCl2, 1 mM EDTA, 0.1 mM DDT, and 0.1 mM PMSF) and centrifuged at 12,000×g followed by a 60,000×g centrifugation of the supernatant. p21ras farnesyltransferase from 60,000×g supernatant fractions was then partially purified by DEAE-sephacel chromatography where it was eluted with 50 mM Tris (pH 7.5) containing 0.4M NaCl. p21ras farnesyltransferase activity was determined by measuring the amount of [3H]FPP transferred to recombinant p21H-ras as previously described (15,16). p21H-ras was isolated from E. coli strain RRI expressing p21H-ras (Hoffman-LaRoche, Inc.) as described previously (25) except for the last step of purification where HPLC was replaced by DEAE-sephacel chromatography. For peptide inhibition studios, CA1 A2 X peptides and peptidomimetics were premixed with p21ras farnesyltransferase (40 μg) prior to adding the reaction mixture (50 Mm Tris (pH. 7.5), 50 μM ZnCl2, 20 mM KCl, 1 mM DTT, 20 μM p21H-ras, 9 mmol [3H]FPP). After incubation for one hour at 37° C., the reaction was stopped and filtered on glass fibers as described earlier (15,16). […] The results for C-AMBA-M (.quadrature.), CVIM (.circle-solid.), CIIM (Δ), CVVM (.gradient.) and VCIM (.smallcircle.) are indicated in FIG. 1. The data presented is representative of three independent experiments.
# The ability of CA1 A2 X tetrapeptides, peptidomimetics and corresponding functionalized derivatives to inhibit p21ras farnesyltransferase from EJ3 cells was determined in vitro as described above (Example 9). p21ras farnesyltransferase was partially purified from EJ3 cells by DEAE-chromatography as described above (Example 9) and incubated with various concentrations of peptides and peptidomimetics. The ability of these drugs to inhibit the transfer of [3H]FPP to recombinant p21ras was determined as described (Example 9).
# A-31 cells = assay: Cell growth inhibition, MTT assay, A-31 cells; type: cell-based, murine; details: concentrations of 500 μM, FIG. 7B
# Procedure: as §1
# An important aspect of the invention is the finding that the antitumor activity of the peptidomimetics of the invention are selective for ras-transformed cells as compared to their non-transformed parent cell line. A-31 is a normal, non-tumorigenic cell line clone from balb murine fibroblasts. EJ3 is a tumorigenic (produces tumors when injected into mice) cell line that was obtained by transforming A-31 cells with H-ras isolated from a human bladder tumor. The ability of BBM-peptides and peptidomimetics to inhibit cell growth of these two related cell lines (A-31 and EJ3) was determined by MTT assay as described above.
# [4] = target: T2, p21ras farnesyltransferase from human colon carcinoma (COLO-205) (Homo sapiens, UniProt P49354+P49356); assay: p21ras farnesyltransferase activity assay, enzyme from COLO-205; type: biochemical; details: for inhibition of p21ras farnesyltransferase (in words): human tumor enzyme (COLO-205 and Daudi), concentrations as high as 10 μM
# T2 construct: p21ras farnesyltransferase from 60,000×g supernatant fractions was then partially purified by DEAE-sephacel chromatography; endogenous in cells; host or cells: COLO-205 human colon carcinoma cells (cytosolic 60,000×g supernatant, DEAE-sephacel fraction)
# Procedure: (§2) Human colon carcinoma COLO-205 cells (ATCC, Rockville, Md.) were grown to confluency in RPMI containing 10% FBS, 1% penicillin/streptomycin at 37° C and 10% Co2 atmosphere. The cells were homogenized in lysis buffer (10 mM Hepes pH 7.4, 1 mM MgCl2, 1 mM EDTA, 0.1 mM DDT, and 0.1 mM PMSF) and centrifuged at 12,000×g followed by a 60,000×g centrifugation of the supernatant. p21ras farnesyltransferase from 60,000×g supernatant fractions was then partially purified by DEAE-sephacel chromatography where it was eluted with 50 mM Tris (pH 7.5) containing 0.4M NaCl. p21ras farnesyltransferase activity was determined by measuring the amount of [3H]FPP transferred to recombinant p21H-ras as previously described (15,16). p21H-ras was isolated from E. coli strain RRI expressing p21H-ras (Hoffman-LaRoche, Inc.) as described previously (25) except for the last step of purification where HPLC was replaced by DEAE-sephacel chromatography. For peptide inhibition studios, CA1 A2 X peptides and peptidomimetics were premixed with p21ras farnesyltransferase (40 μg) prior to adding the reaction mixture (50 Mm Tris (pH. 7.5), 50 μM ZnCl2, 20 mM KCl, 1 mM DTT, 20 μM p21H-ras, 9 mmol [3H]FPP). After incubation for one hour at 37° C., the reaction was stopped and filtered on glass fibers as described earlier (15,16).
# (§3) To determine the potency of the novel peptidomimetics relative to their parent tetrapeptides, the potency of CA1 A2 X corresponding to the carboxyl terminus ends of p21 KA -ras, p21 KB -ras and p21N-ras to inhibit p21ras farnesyltransferase from human colon carcinoma (COLO-205) and Burkitt's lymphoma (Daudi) was determined.
# [5] = target: T3, p21ras farnesyltransferase from Burkitt's lymphoma (Daudi) (Homo sapiens, UniProt P49354+P49356); assay: p21ras farnesyltransferase activity assay, enzyme from Daudi; type: biochemical
# T3 construct: Partially purified p21ras farnesyltransferase from human tumors; endogenous in cells; host or cells: Daudi Burkitt's lymphoma cells
# T3 sequence (P49356 whole entry, one chain of several): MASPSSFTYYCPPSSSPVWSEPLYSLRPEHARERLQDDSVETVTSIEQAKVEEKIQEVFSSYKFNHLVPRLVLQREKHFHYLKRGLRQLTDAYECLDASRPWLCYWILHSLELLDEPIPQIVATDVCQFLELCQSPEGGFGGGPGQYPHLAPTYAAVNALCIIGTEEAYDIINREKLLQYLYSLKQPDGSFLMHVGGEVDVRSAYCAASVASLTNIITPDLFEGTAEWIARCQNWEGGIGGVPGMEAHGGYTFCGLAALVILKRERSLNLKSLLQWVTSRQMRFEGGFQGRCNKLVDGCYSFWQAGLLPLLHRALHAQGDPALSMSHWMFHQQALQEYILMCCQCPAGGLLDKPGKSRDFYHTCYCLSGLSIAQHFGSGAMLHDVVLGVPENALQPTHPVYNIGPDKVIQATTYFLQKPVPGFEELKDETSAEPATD
# Procedure: as §2, §3
# [6] = Table 2, ras oncogene-transformed cells, read-out: IC50 (uM) Growth Studies
# [7] = MTT, four days, FIG. 4A/4B, read-out: EJ3 cell growth inhibition IC50
# [8] = Table 2, read-out: IC50 (uM) Farnesyltransferase
# [9] = enzyme from EJ3 cells, FIG. 5A/5B, read-out: p21ras farnesyltransferase IC50
# [10] = partially purified enzyme from COLO-205, transfer of farnesyl to recombinant p21 H-ras, read-out: IC50 (μM) COLO-205
# [11] = partially purified enzyme from Daudi, transfer of farnesyl to recombinant p21 H-ras, read-out: IC50 (μM) Daudi
# [12] = read-out: IC50, p21ras farnesyltransferase from Daudi
Compound,"IC50 [3, 8] [µM]","IC50 [4, 10] [µM]","IC50 [5, 11] [µM]","IC50 [1, 6] [µM]",other results
"O=C(N[C@@H](CSC(=O)OCc1ccccc1)C(=O)O)OCc1ccccc1 [BB-Cys, N S-DiCBZ-cysteine]",–,–,–,275 ± 41,–
"COC(=O)[C@H](CCSC)NC(=O)c1cccc(CNC(=O)[C@H](CSC(=O)OCc2ccccc2)NC(=O)OCc2ccccc2)c1 [BBM-C-AMBA-M, N, S-DiCBZ-Cys-AMBA-Met-OCH3]",> 100,–,–,12.1 ± 1,"inhibition of p21ras plasma membrane association (in words) [2]: inhibited p21ras plasma membrane association; IC50 [1, 7]: 10 µM; IC50 ([1]; MTT, selectivity study, FIG. 7A/7B, read-out: EJ3 cell growth inhibition IC50): 20 µM; IC50 [3, 9]: > 100 µM; effect on A-31 cell growth (in words) (A-31 cells): not much affected"
CC[C@H](C)[C@H](NC(=O)[C@@H](NC(=O)[C@H](CSC(=O)OCc1ccccc1)NC(=O)OCc1ccccc1)C(C)C)C(=O)N[C@@H](CCSC)C(=O)OC [BBM-CVIM] (Cbz-C(Cbz)VIM-OMe),> 100,–,–,–,"IC50 [3, 9]: > 10 µM"
CC[C@H](C)[C@H](NC(=O)[C@@H](NC(=O)[C@H](CSC(=O)OCc1ccccc1)NC(=O)OCc1ccccc1)C(C)C)C(=O)N[C@@H](CCSC)C(=O)OC [BBM-VCIM] (Cbz-C(Cbz)VIM-OMe),–,–,–,215 ± 66,–
"N[C@@H](CS)C(=O)NCc1cccc(C(=O)N[C@@H](Cc2ccccc2)C(=O)O)c1 [C-AMBA-F, Cys-AMBA-Phe]",–,0.53,0.6,–,"IC50 [5, 12]: 0.6 µM"
"CC[C@H](C)C(=O)O[C@H]1C[C@@H](C)C=C2C=C[C@H](C)[C@H](CC[C@@H]3C[C@@H](O)CC(=O)O3)[C@H]21 [Lovastatin, reference compound]",–,–,–,–,inhibition of p21ras plasma membrane association (in words) [2]: inhibited p21ras membrane association
"CC[C@H](C)[C@H](NC(=O)[C@H](CS)NC(=O)[C@@H](N)C(C)C)C(=O)N[C@@H](CCSC)C(=O)O [VCIM, reference compound] (H-VCIM-OH)",40,> 10,> 10,–,"IC50 [3, 9]: > 10 µM"
Cys-AMBA-Glu [C-AMBA-E],–,1.42,1.54,–,reduction of ability to inhibit the enzyme relative to Cys-AMBA-Met ([4]; COLO-205): 24 fold; reduction of ability to inhibit the enzyme relative to Cys-AMBA-Met ([5]; Daudi): 13 fold

# Now from value to compound, other results behind:
"IC50 [3, 8] [µM]","IC50 [4, 10] [µM]","IC50 [5, 11] [µM]",Compound,"IC50 [1, 6] [µM]",other results
–,> 10,> 10,"NCCCC[C@H](NC(=O)c1cccc(CNC(=O)[C@@H](N)CS)c1)C(=O)O [C-AMBA-K, Cys-AMBA-Lys]",–,inhibition of p21ras farnesyltransferase (in words) [4]: abolished p21ras farnesyltransferase inhibition activity
–,> 10,> 10,"CC(C)C[C@H](NC(=O)c1cccc(CNC(=O)[C@@H](N)CS)c1)C(=O)O [C-AMBA-L, Cys-AMBA-Leu]",–,inhibition of p21ras farnesyltransferase (in words) [4]: had no inhibitory activity
3.1,0.06,–,"CSCC[C@H](NC(=O)c1cccc(CNC(=O)[C@@H](N)CS)c1)C(=O)O [C-AMBA-M, Cys-AMBA-Met]",627 ± 178,"increase in potency over CIIM ([4]; COLO-205): 8.8 fold; increase in potency over CVIM ([4]; COLO-205): 3.3 fold; increase in potency over CVVM ([4]; COLO-205): 7.7 fold; IC50 ([4]; read-out: IC50, p21ras farnesyltransferase from COLO-205): 0.06 µM; inhibition of p21ras plasma membrane association (in words) [2]: did not inhibit p21ras plasma association; increase in potency over CIIM ([5]; Daudi): 6.9 fold; increase in potency over CVIM ([5]; Daudi): 1.6 fold; increase in potency over CVVM ([5]; Daudi): 5.1 fold; IC50 [5, 12]: 0.12 µM; IC50 [1, 7]: 1500 µM; IC50 [3, 9]: 2 µM"
–,0.53,0.83,"CC[C@H](C)[C@H](NC(=O)[C@@H](NC(=O)[C@@H](N)CS)[C@@H](C)CC)C(=O)N[C@@H](CCSC)C(=O)O [CIIM, reference compound] (H-CIIM-OH)",–,–
0.35,–,–,"CC[C@H](C)[C@H](NC(=O)[C@@H](NC(=O)[C@@H](N)CS)C(C)C)C(=O)N[C@@H](CCSC)C(=O)O [CVIM, Cys-Val-Ile-Met, reference compound] (H-CVIM-OH)",–,"IC50 [5, 12]: 0.19 µM; IC50 ([3]; enzyme from EJ3 cells, FIG. 5A, read-out: p21ras farnesyltransferase IC50): 0.4 µM"
–,0.46,0.61,"CSCC[C@H](NC(=O)[C@@H](NC(=O)[C@@H](NC(=O)[C@@H](N)CS)C(C)C)C(C)C)C(=O)O [CVVM, Cys-Val-Val-Met, reference compound] (H-CVVM-OH)",–,–
4.5,–,–,CC[C@H](C)[C@H](NC(=O)[C@@H](NC(=O)[C@@H](N)CS)C(C)C)C(=O)N[C@@H](CCSC)C(=O)OC [M-CVIM] (HELM PEPTIDE1{C.V.I.M.[CO[*:1]]}$$$$V2.0),200 ± 58,–
–,> 10,> 10,Ser-AMBA-Met [S-AMBA-M],–,inhibition of p21ras farnesyltransferase (in words) [4]: did not inhibit
